Key:
[1] = Stability of E1 dihydrate against transformation to sesquihydrate on storage (PXRD); format: physicochemical
Procedure: A suitable method to determine the presence of gatifloxacin sesquihydrate in gatifloxacin form E1 is x-ray powder diffraction. Determination of presence of sesquihydrate in form E1 is feasible in the region 7° to 9° 2θ, where a peak of sesquihydrate appears at about 7.8° 2θ.
Moreover, the dihydrate of the present invention is stable against transformation to the sesquihydrate when exposed at ambient temperature to 60% relative humidity for one week.
The E1 dihydrate of the present invention is stable against transformation to sesquihydrate when stored at 30° C. and 60% relative humidity for 3 months.

[2] = Interconversion of crystalline forms by thermal treatment (XRD before and after heating); format: physicochemical
Procedure: (§1) X-ray reflections reported herein were determined by the powder diffraction technique (PXRD). X-ray powder diffraction analysis was performed using a Scintag powder diffractometer with variable goniometer, a Cu source, and a solid state detector. A standard round aluminum sample holder with zero background quartz plate was used. Samples were scanned from 2° to 40° 2θ at 3° per minute. Reflections are reported as peak maxima in the Intensity vs. 2θ plots, and are subject to the normal experimental error (uncertainty) of ±0.2°. Wet samples were promptly analyzed “as is,” i.e., without drying or grinding prior to the analysis.
Approximately 200 mg of several of the novel crystalline forms of the present invention, prepared as described in the foregoing examples, and several of the prior-art crystalline forms were subjected to various thermal treatments. The treatments and the results are described in Table II below
200 mg of gatifloxacin form E1 were heated to 100° C. for 1 hour. The XRD of the resulting sample was that of the omega form.

[3] = Stability of E1 in formulations; format: physicochemical; details: in formulations at 30° C.
Excerpt: The pharmaceutical composition can be in the form of a solid oral dosage form (e.g., compressed tablets or capsules), or it can be in the form of a liquid oral dosage form (e.g., a solution or oral suspension).

[4] = Exposure to 80% relative humidity for 1 week (XRD, TGA, KF); format: physicochemical; details: for crystal structure of resulting sample (XRD): 80% relative humidity for 1 week
Procedure: as §1
Thermogravimetric analysis (TGA) was performed using a Mettler TG50 thermobalance. Samples of 7 to 15 milligrams were analyzed at a heating rate of 10° C. per minute in the temperature range between about 25° C. and about 200° C.
The water content (wt-% water) of crystalline forms of gatifloxacin reported herein was determined by the Karl-Fisher method. Water content of solutions was likewise determined by the Karl-Fisher method.
200 mg of gatifloxacin form J were put in 80% relative humidity for 1 week. The resulting sample was analyzed by XRD, TGA and KF.
200 mg of gatifloxacin omega form were put in 80% relative humidity for 1 week, and then analyzed by XRD and by TGA.

[5] = as reported in U.S. Pat. No. 5,880,283; cited from earlier work
[6] = among forms of U.S. Pat. No. 6,413,969, cited from earlier work
[7] = after 80% relative humidity for 1 week

## COc1c(N2CCNC(C)C2)c(F)cc2c(=O)c(C(=O)O)cn(C3CC3)c12 (stereo not shown) [E1 dihydrate, gatifloxacin]
[1]; ambient temperature, 60% relative humidity, one week, PXRD
  stability against transformation to the sesquihydrate: stable
[1]; stored at 30° C. and 60% relative humidity for 3 months
  stability against transformation to sesquihydrate: stable

## COc1c(N2CCNC(C)C2)c(F)cc2c(=O)c(C(=O)O)cn(C3CC3)c12 (stereo not shown) [T1RP, gatifloxacin]
[2]; 120° C., 1 h
  form Obtained after heating (XRD): Hemihydrate

## COc1c(N2CCNC(C)C2)c(F)cc2c(=O)c(C(=O)O)cn(C3CC3)c12 (stereo not shown) [form E1, gatifloxacin]
[3]
  time stable in formulations: at least 3 months
[2]; 100° C. for 1 hour
  form Obtained after heating (XRD): omega form

## COc1c(N2CCNC(C)C2)c(F)cc2c(=O)c(C(=O)O)cn(C3CC3)c12 (stereo not shown) [form G, gatifloxacin]
[2]; 120° C., 1 h
  form Obtained after heating (XRD): Omega^1.

## COc1c(N2CCNC(C)C2)c(F)cc2c(=O)c(C(=O)O)cn(C3CC3)c12 (stereo not shown) [form J, gatifloxacin]
[2]; 120° C., 1 h
  form Obtained after heating (XRD): omega
[4]
  crystal structure of resulting sample (XRD): sesquihydrate
[4]; [7]
  KF water content of resulting sample: 6.6%
  LOD of resulting sample (TGA): 7.8%

## COc1c(N2CCNC(C)C2)c(F)cc2c(=O)c(C(=O)O)cn(C3CC3)c12 (stereo not shown) [hemihydrate, gatifloxacin]
[2]; 120° C., 1 h
  form Obtained after heating (XRD): T2RP
[5]
  hygroscopicity: hygroscopic

## COc1c(N2CCNC(C)C2)c(F)cc2c(=O)c(C(=O)O)cn(C3CC3)c12 (stereo not shown) [omega form, gatifloxacin]
[4]
  crystal structure of resulting sample (XRD): sesquihydrate
[4]; [7]
  LOD of resulting sample (TGA): 7.7%

## COc1c(N2CCNC(C)C2)c(F)cc2c(=O)c(C(=O)O)cn(C3CC3)c12 (stereo not shown) [pentahydrate, gatifloxacin]
[6]
  thermodynamic stability: most thermodynamically stable form
[6]; room temperature
  aqueous solubility: lowest aqueous solubility

## COc1c(N2CCNC(C)C2)c(F)cc2c(=O)c(C(=O)O)cn(C3CC3)c12 (stereo not shown) [sesquihydrate, gatifloxacin]
[2]; 120° C., 1 h
  form Obtained after heating (XRD): T2RP + omega
[5]
  hygroscopicity: less hygroscopic
  stability in manufacturing: more stable in manufacturing

Source: patent US7423153B2, “Crystalline forms of gatifloxacin” (Teva Pharmaceutical Industries Ltd., priority 2002, dated 2008)
